# Measured values published in US20180200368A1, “DISRUPTION OR ALTERATION OF MICROBIOLOGICAL FILMS” (UNIVERSITEIT GENT, priority 2015, published 2018).
# Legend:
# Assay in all cases: Bacterial viability of biofilm after VNB cluster disruption and tobramycin treatment
# Type in all cases: cell-based
# [1] = tested on: Burkholderia multivorans LMG18825 biofilms; details: 70 nm AuNPs + single 7 ns pulse of 561 nm laser (2.8 J/cm2), then tobramycin 32 μg/mL for 24 hours at 37° C.; vs tobramycin alone
# Procedure: (§1) In the study, the synergistic effect of vapour nanobubble mediated cluster disruption and antibiotic treatment was evaluated for 3 types of bacteria. As gram-negatives, Burkholderia multivorans LMG18825 and Pseudomonas aeruginosa LESB58 were selected. Staphylococcus aureus Mu50, often implicated in skin and soft tissue infections, was chosen as a challenging representative of gram-positive bacteria. AuNPs were evaluated for achieving efficient loading and disruption of biofilm clusters. […] The Bacteria are stained with SYTO59 and the gold particles were detected by reflection of the laser light.
# (§2) In further experiments, the synergistic effect of VNB biofilm cluster disruption with relevant antibiotics or disinfectants is evaluated. The biofilm first received a laser treatment for cluster disruption, followed by treatment with tobramycin. Proper controls were taken into account: untreated control, only AuNPs, only laser treatment, VNBs only, AuNPs with tobramycin. Each location in the biofilm received a single 7 ns pulse of 561 nm laser light (2.8 J/cm2) followed by Tobramycin treatment at 32 μg/mL, 16 μg/mL and 1024 μg/mL for Burkholderia multivorans, Pseudomonas aeruginosa and Staphylococcus aureus biofilms, respectively. The bacterial viability following vapour nanobubble generation and antibiotic treatment is shown in FIG. 5 The different experiments are as follows: […]
# [2] = tested on: Staphylococcus aureus Mu50 biofilms; details: 70 nm AuNPs + single 7 ns pulse of 561 nm laser (2.8 J/cm2), then tobramycin 1024 μg/mL for 24 hours at 37° C.
# Procedure: as §1, §2
# [3] = tested on: Pseudomonas aeruginosa LESB58 biofilms
# Procedure: as §1
# as §2, with “respectively.” for “respectively. The bacterial viability following vapour nanobubble generation and antibiotic treatment is shown in FIG. 5 The different experiments are as follows:”
# In another experiment, the effect of applying different laser pulses on the biofilm was evaluated. […]
structure (smiles),measurement,setting,value
NC[C@H]1O[C@H](O[C@H]2[C@H](O)[C@@H](O[C@H]3O[C@H](CO)[C@@H](O)[C@H](N)[C@H]3O)[C@H](N)C[C@@H]2N)[C@H](N)C[C@@H]1O [tobramycin],increased eradication potency of tobramycin by use of VNBs,[1],~50 times
same,CFU decrease of combined VNB-tobramycin treatment as compared to tobramycin alone,[2],~10 times
same,CFU decrease in comparison with treatment with tobramycin alone,"[3]; 10 laser pulses of 7 ns of 561 nm (2.8 J/cm2) per location (10× VNB formation), then tobramycin for 24 hours at 37° C.",~4000 times
same,CFU decrease of combined VNB-tobramycin treatment as compared to tobramycin alone,"[3]; 70 nm AuNPs + single 7 ns pulse of 561 nm laser (2.8 J/cm2), then tobramycin 16 μg/mL for 24 hours at 37° C.",~20 times
